Assay results taken from article PMC11249012 (Journal of Medicinal Chemistry, 2024).
pIC50: −log10 of the molar value. ≈ marks a conversion by molar mass, not a printed value. Like-named read-outs stand apart in the source and are kept apart here.

Key:
Solubility = type: physicochemical
[1] = system: hyperacetylation of tubulin, H3K9 and H3K27; test: Western blot of tubulin and histone H3 hyperacetylation in 4TO7 cells; type: cell-based, mouse; conditions: hybrids 10 μM, SAHA 100 nM, 6 h
Description: The potential for compounds as HDACi’s can be rapidly tested in cells in culture by monitoring the hyperacetylation of histone H3 and tubulin. H3 acetylation is controlled by multiple class I enzymes, and the class IIb enzyme HDAC6 regulates tubulin acetylation.[36]−[39] […] (Figure 4A).
Figure 4 Evidence for HDAC inhibition in 4T1 and 4TO7 TNBC cells. Western blots and quantification of triplicate biological replicates analyzing the effects of 1,25D (100 nM), SAHA (100 nM), and hybrids (10 μM) on hyperacetylation of tubulin (A,D), H3K9 (B,E), and H3K27 (C,F) in 4T1 (A–C) and 4TO7 cells (D–F).
(§1) After 6 h treatments, 4T1, 4T07, or B16-F10 cells were solubilized in lysis buffer (20 mM Tris, pH 8, 150 mM NaCl, 1% Triton X-100, 3.5 mM SDS, and 13 mM deoxycholic acid), and proteins were separated on a 4–15% Tris/glycine/SDS gel (Bio-Rad). Then, the proteins were transferred to a nitrocellulose membrane, followed by blocking in 5% skim milk in Tris-buffered saline (TBS, 1×) solution. […] Finally, signals were detected using Clarity ECL substrates (Bio-Rad) and a ChemiDoc Imaging System. Changes in protein levels were quantified relative to control using Image Lab software (version 6.0.1) after normalization to GAPDH. […]

[2] = system: hyperacetylation of tubulin, H3K9 and H3K27; test: Western blot of tubulin and histone H3 hyperacetylation in B16-F10 cells; type: cell-based, mouse; conditions: SAHA 100 nM
Description: B16-F10 cells are responsive to 1,25D analogues[45] and HDACi[46],[47] and are therefore widely used in preclinical studies of melanoma solid tumor growth and metastases.[48] Although curable when treated early, melanoma is fatal when invasive. The American Cancer Society projected 97,610 new invasive melanoma cases in the US in 2023 and 7990 deaths. Current treatment options include chemotherapy, surgery, immunotherapy, or single agents targeting mutated genes such as B-RAF or C-KIT.[49]
as §1
Figure S2. […] Quantification of the analyses of hyperacetylation in B16-F10 cells of tubulin, H3K9 and H3K27. […]

HDAC4 = HDAC4 (Homo sapiens, UniProt P56524); test: Biochemical assay for HDAC inhibition, HDAC4; conditions: read-out: IC50 HDAC4
HDAC9 = HDAC9 (Homo sapiens, UniProt Q9UKV0); test: Biochemical assay for HDAC inhibition, HDAC9; conditions: concentrations as high as 100 μM
Chain of HDAC9 (Q9UKV0 whole entry): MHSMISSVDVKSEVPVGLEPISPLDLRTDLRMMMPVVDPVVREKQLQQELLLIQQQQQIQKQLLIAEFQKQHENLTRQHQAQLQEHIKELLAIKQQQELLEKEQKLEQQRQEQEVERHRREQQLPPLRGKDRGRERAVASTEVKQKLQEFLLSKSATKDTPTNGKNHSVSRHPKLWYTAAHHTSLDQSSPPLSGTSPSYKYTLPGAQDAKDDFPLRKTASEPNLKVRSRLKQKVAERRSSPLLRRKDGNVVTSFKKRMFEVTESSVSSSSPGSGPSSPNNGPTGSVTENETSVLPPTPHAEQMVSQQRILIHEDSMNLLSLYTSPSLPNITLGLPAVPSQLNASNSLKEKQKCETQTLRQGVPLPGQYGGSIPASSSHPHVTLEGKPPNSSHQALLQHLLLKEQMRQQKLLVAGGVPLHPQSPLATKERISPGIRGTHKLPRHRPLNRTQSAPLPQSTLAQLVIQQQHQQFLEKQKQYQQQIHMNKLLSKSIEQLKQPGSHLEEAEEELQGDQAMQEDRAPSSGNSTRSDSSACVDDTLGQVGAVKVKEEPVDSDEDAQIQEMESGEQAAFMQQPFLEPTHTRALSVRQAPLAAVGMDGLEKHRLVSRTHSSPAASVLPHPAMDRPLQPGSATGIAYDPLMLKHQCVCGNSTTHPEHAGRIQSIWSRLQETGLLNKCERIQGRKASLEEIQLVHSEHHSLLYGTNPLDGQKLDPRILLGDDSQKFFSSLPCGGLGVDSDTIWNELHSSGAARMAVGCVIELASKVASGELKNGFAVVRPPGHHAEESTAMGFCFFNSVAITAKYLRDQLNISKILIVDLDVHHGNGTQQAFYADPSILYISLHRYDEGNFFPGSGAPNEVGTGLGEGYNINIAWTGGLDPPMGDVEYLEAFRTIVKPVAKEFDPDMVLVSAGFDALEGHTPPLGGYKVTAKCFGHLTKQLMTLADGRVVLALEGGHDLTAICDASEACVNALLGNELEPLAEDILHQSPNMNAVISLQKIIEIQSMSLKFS

Chain of HDAC4 (P56524 whole entry): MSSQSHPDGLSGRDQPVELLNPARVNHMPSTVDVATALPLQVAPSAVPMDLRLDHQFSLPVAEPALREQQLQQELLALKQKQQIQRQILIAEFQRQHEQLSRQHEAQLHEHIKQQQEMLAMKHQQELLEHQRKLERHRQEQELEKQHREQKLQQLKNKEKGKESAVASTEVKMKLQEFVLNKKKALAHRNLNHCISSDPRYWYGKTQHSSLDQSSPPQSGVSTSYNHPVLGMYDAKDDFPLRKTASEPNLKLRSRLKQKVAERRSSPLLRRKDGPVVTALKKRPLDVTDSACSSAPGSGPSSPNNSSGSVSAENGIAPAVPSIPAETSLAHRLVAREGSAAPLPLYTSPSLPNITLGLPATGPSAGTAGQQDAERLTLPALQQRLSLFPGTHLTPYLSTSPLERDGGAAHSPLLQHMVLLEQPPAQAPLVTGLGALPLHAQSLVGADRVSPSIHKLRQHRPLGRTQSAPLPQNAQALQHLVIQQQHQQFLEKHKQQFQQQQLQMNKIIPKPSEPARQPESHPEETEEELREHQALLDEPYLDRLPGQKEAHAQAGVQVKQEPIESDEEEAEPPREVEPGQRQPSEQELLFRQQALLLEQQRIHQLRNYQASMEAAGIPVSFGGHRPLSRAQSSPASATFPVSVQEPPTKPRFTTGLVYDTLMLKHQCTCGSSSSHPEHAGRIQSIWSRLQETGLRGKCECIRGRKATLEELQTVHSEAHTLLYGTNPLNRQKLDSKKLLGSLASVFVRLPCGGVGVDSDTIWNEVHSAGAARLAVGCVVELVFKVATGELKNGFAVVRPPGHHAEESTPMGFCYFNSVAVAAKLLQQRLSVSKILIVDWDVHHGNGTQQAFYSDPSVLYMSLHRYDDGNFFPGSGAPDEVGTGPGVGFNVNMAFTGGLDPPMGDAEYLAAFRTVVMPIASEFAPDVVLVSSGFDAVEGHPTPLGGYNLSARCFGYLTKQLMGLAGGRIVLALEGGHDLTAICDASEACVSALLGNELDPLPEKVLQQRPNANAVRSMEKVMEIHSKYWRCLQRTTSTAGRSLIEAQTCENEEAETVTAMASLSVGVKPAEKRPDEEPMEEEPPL

CCC(CC)(c1ccc(C(=O)NCCCCC(=O)NO)cc1)c1ccc(OCC(O)C(C)(C)C)c(C)n1 (stereo not drawn) [ZG-126, 4-(3-(5-(2-Hydroxy-3,3-dimethylbutoxy)-6-methylpyridin-2-yl)pentan-3-yl)-N-(5-(hydroxyamino)-5-oxopentyl)benzamide]
solubility (Solubility): 9.19 µg/mL (≈ 17.9 µM)
tubulin and histone hyperacetylation [1]: induced higher levels of tubulin and histone hyperacetylation than SAHA
tubulin acetylation and histone hyperacetylation [2]: comparable to or greater than that induced by a saturating concentration of SAHA
pIC50 (HDAC4): 4.17
pIC50 (HDAC4; Table 1, purified enzyme, unit inferred): 4.17
inhibition of HDAC9 (HDAC9): no or very limited inhibition
